Patent US8921576B2, “Spiroindoline compound, and medicinal agent comprising same” (Kowa Company, Ltd., priority 2011, dated 2014)

Molecular target: T1, GST-GK derived from human liver GK (Homo sapiens, UniProt P35557)
T1 construct: made in house; host or cells: Escherichia coli DH5α
T1 sequence (P35557 1-466 isoform P35557-2): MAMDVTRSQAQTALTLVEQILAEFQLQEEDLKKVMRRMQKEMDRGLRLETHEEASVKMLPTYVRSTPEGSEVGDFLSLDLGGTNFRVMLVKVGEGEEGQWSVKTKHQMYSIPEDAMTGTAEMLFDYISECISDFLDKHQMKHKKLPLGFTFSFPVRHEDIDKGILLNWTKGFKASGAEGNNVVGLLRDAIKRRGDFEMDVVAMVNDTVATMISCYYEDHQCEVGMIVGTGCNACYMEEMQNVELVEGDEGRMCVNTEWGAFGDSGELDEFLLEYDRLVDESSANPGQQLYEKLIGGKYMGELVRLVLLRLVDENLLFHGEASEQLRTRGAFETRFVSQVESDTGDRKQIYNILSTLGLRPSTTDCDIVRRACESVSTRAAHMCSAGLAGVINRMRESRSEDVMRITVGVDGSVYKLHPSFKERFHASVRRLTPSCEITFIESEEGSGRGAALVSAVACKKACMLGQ
Experiment: In vitro GK activity measurement test (G6PDH-coupled, OD340)
Format: biochemical
Conditions: test compound 1 μmol/L; glucose 2.5 mmol/L; 25° C.; OD340 slope with compound / without compound; read-out: GK activation rate (%)
From the text: cDNA (GenBank Accession No. NM_033507, human glucokinase, variant 2) encoding human liver-type GK polypeptide was cloned by performing a polymerase chain reaction (hereinafter referred to as “PCR”) using a human liver cDNA library (Human liver QUICK-Clone cDNA, TAKARA BIO INC.), and the thus cloned cDNA was then introduced into an expression vector (pGEX-3X, GE Healthcare Japan) for glutathione S transferase (hereinafter referred to as GST) fusion protein expression. The resulting vector was introduced into Escherichia coli (Competent high DH5α, Toyobo Co., Ltd.), and the transformed Escherichia coli was then cultured at 37° C. Thereafter, Isopropyl β-D-1-thiogalactopyranoside (final concentration: 1 mmol/L, Sigma Aldrich Japan) was added to the culture, and the obtained mixture was then cultured at 30° C. for 3 hours. Thereafter, a cell mass was recovered. The recovered cell mass was subjected to freezing-and-thawing, and the resulting cell mass was then suspended in phosphate buffer with final concentration of 1% Triton X-100, followed by disintegration with an ultrasonic disruptor. The homogenate was centrifuged at 33,200 rpm at 4° C. for 1 hour. Thereafter, the supernatant was recovered, and a GST-GK fusion protein was then purified using a glutathione column (GSTrap FF, GE Healthcare Japan). The obtained GST-GK fusion protein was divided into some portions each having a small volume, and the thus divided proteins were then preserved at −80° C.
A GK assay method was carried out at 25° C. at a final incubation volume of 100 μL in a flat-bottom 96-well assay plate. An assay buffer comprised 25 mmol/L Hepes buffer (pH 7.1), 25 mmol/L KCl, 2.5 mmol/L or 10 mmol/L D-glucose, 5 mmol/L ATP, 1 mmol/L nicotinamide adenine dinucleotide phosphate (abbreviated as NADP), 2 mmol/L MgCl2, 1 mmol/L dithiothreitol (DTT), 2 units/mL glucose-6 phosphate dehydrogenase (G6PDH), and 1 μg/mL GST-GK derived from human liver GK. ATP, G6PDH, and NADP were purchased from Roche Diagnostics. […] The thus mixed solution was preincubated in an incubator in which the temperature was controlled at 25° C. for 15 minutes. Subsequently, the reaction was initiated by adding 10 μL of the GST-GK solution to the reaction mixture, resulting in a final concentration of 0.1 μg/mL. After initiation of the reaction, an increase in the optical concentration at 340 nm (OD340) was monitored with a microplate spectrophotometer (Varsamax, Molecular Devices Japan K.K.) every 10 seconds over an incubation period of 10 minutes. An inclination of the OD340 increase was defined as raw data. The GK activating rate was indicated as a numerical value obtained from the expression: (Inclination of OD340 increase by addition of the test compound)/(inclination of OD340 increase without addition of the test compound). The results of the GK activating rate obtained at a test compound concentration of 1 μmol/L under the condition of a glucose concentration of 2.5 mmol/L are shown in the following table.

Structure (SMILES)	activity at 1 µM
O=C(NCCCCO)N1CCC2(C1)CN(C(=O)Nc1ncc(Cl)s1)c1ccc(Cl)cc12 (centres unmarked) [Example 470, 5-chloro-N1-(5-chlorothiazol-2-yl)-N1′-(4-hydroxybutyl)spiro[indoline-3,3′-pyrrolidine]-1,1′-dicarboxamide]	459%
CCNC(=O)N1CCC2(C1)CN(C(=O)Nc1ncc(Cl)s1)c1ccc(Cl)cc12 (centres unmarked) [Example 379, 5-Chloro-N1-(5-chlorothiazol-2-yl)-N1′-ethylspiro[indoline-3,3′-pyrrolidine]-1,1′-dicarboxamide]	554%
CNC(=S)N1CCC2(C1)CN(C(=O)Nc1ncc(Cl)s1)c1ccc(Cl)cc12 (centres unmarked) [Example 449, 5-Chloro-N-(5-chlorothiazol-2-yl)-1′-(methylcarbamothioyl)spiro[indoline-3,3′-pyrrolidine]-1-carboxamide]	633%
COC(=O)N1CCC2(C1)CN(C(=O)Nc1ncc(SCCCNS(=O)(=O)C3CC3)s1)c1ccc(Cl)cc12 (centres unmarked) [Example 179, methyl 5-chloro-1-((5-((3-(cyclopropanesulfonamido)propyl)thio)thiazol-2-yl)carbamoyl)spiro[indoline-3,3′-pyrrolidine]-1′-carboxylate]	669%
COC(=O)N1CC[C@@]2(C1)CN(C(=O)Nc1ncc(F)s1)c1ccc(Cl)cc12 [Example 355, (S)-methyl 5-chloro-1-((5-fluorothiazol-2-yl)carbamoyl)spiro[indoline-3,3′-pyrrolidine]-1′-carboxylate]	636%
COC(=O)N1CCC2(C1)CN(C(=O)Nc1ncc(SCC(=O)N(C)C)s1)c1ccc(Cl)cc12 (centres unmarked) [Example 131, methyl 5-chloro-1-((5-((2-(dimethylamino)-2-oxoethyl)thio)thiazol-2-yl)carbamoyl)spiro[indoline-3,3′-pyrrolidine]-1′-carboxylate]	411%
COC(=O)N1CCC2(C1)CN(C(=O)Nc1ncc(SCCCC(=O)NO)s1)c1ccc(Cl)cc12 (centres unmarked) [Example 169, methyl 5-chloro-1-((5-((4-(hydroxyamino)-4-oxobutyl)thio)thiazol-2-yl)carbamoyl)spiro[indoline-3,3′-pyrrolidine]-1′-carboxylate]	532%
CNC(=O)N1CC[C@@]2(C1)CN(C(=O)Nc1ncc(OC)s1)c1ccc(Cl)cc12 [Example 380, (R)-5-Chloro-N1-(5-methoxythiazol-2-yl)-N1′-methylspiro[indoline-3,3′-pyrrolidine]-1,1′-dicarboxamide]	636%
COc1cnc(NC(=O)N2CC3(CCN(C(C)=O)C3)c3cc(C(F)(F)F)ccc32)s1 (centres unmarked) [Example 437, 1′-Acetyl-N-(5-methoxythiazol-2-yl)-5-(trifluoromethyl)spiro[indoline-3,3′-pyrrolidine]-1-carboxamide]	506%
COC(=O)N1CCC2(C1)CN(C(=O)Nc1ncc(SCCCNC(C)=O)s1)c1ccc(Cl)cc12 (centres unmarked) [Example 177, methyl 1-((5-((3-acetamidopropyl)thio)thiazol-2-yl)carbamoyl)-5-chlorospiro[indoline-3,3′-pyrrolidine]-1′-carboxylate]	530%
COc1ccc2nc(NC(=O)N3CC4(CCN(C(C)=O)C4)c4cc(S(=O)(=O)NCc5cccs5)ccc43)sc2n1 (centres unmarked) [Example 273, 1′-Acetyl-N-(5-methoxythiazolo[5,4-b]pyridin-2-yl)-5-(N-(thiophen-2-ylmethyl)sulfamoyl)spiro[indoline-3,3′-pyrrolidine]-1-carboxamide]	692%
CS(=O)(=O)CCNC(=O)N1CCC2(C1)CN(C(=O)Nc1ncc(Cl)s1)c1ccc(Cl)cc12 (centres unmarked) [Example 467, 5-chloro-N1-(5-chlorothiazol-2-yl)-N1′-(2-(methylsulfonyl)ethyl)spiro[indoline-3,3′-pyrrolidine]-1,1′-dicarboxamide]	480%
CNC(=O)N1CC[C@@]2(C1)CN(C(=O)Nc1ncc(Cl)s1)c1ccc(C#N)cc12 [Example 376, (R)—N1-(5-Chlorothiazol-2-yl)-5-cyano-N1′-methylspiro[indoline-3,3′-pyrrolidine]-1,1′-dicarboxamide]	528%
CNC(=O)N1CCC2(C1)CN(C(=O)Nc1ncc(Cl)s1)c1ccc(C(F)(F)F)cc12 (centres unmarked) [Example 432, N1-(5-Chlorothiazol-2-yl)-N1′-methyl-5-(trifluoromethyl)spiro[indoline-3,3′-pyrrolidine]-1,1′-dicarboxamide]	613%
O=C(NCCCO)N1CCC2(C1)CN(C(=O)Nc1ncc(Cl)s1)c1ccc(Cl)cc12 (centres unmarked) [Example 464, 5-chloro-N1-(5-chlorothiazol-2-yl)-N1′-(3-hydroxypropyl)spiro[indoline-3,3′-pyrrolidine]-1,1′-dicarboxamide]	526%
COc1ccc2nc(NC(=O)N3CC4(CCN(C(C)=O)C4)c4cc(S(=O)(=O)NCc5ccccc5OC)ccc43)sc2n1 (centres unmarked) [Example 263, 1′-Acetyl-5-(N-(2-methoxybenzyl)sulfamoyl)-N-(5-methoxythiazolo[5,4-b]pyridin-2-yl)spiro[indoline-3,3′-pyrrolidine]-1-carboxamide]	597%
COc1cnc(NC(=O)N2CC3(CCN(C(=O)CO)C3)c3cc(C(F)(F)F)ccc32)s1 (centres unmarked) [Example 441, 1′-(2-Hydroxyacetyl)-N-(5-methoxythiazol-2-yl)-5-(trifluoromethyl)spiro[indoline-3,3′-pyrrolidine]-1-carboxamide]	416%
CONC(=O)N1CCC2(C1)CN(C(=O)Nc1ncc(Cl)s1)c1ccc(Cl)cc12 (centres unmarked) [Example 480, 5-Chloro-N1-(5-chlorothiazol-2-yl)-N1′-methoxyspiro[indoline-3,3′-pyrrolidine]-1,1′-dicarboxamide]	477%
NCC(=O)N1CC[C@@]2(C1)CN(C(=O)Nc1ncc(Cl)s1)c1ccc(Cl)cc12 [Example 353, (R)-1′-(2-aminoacetyl)-5-chloro-N-(5-chlorothiazol-2-yl)spiro[indoline-3,3′-pyrrolidine]-1-carboxamide]	486%
CCOC(=O)CSc1cnc(NC(=O)N2C[C@]3(CCN(C(=O)OC)C3)c3cc(Br)ccc32)s1 [Example 334, (S)-methyl 5-bromo-1-((5-((2-ethoxy-2-oxoethyl)thio)thiazol-2-yl)carbamoyl)spiro[indoline-3,3′-pyrrolidine]-1′-carboxylate]	705%
COC(=O)N1CC[C@@]2(C1)CN(C(=O)Nc1nc3ccc(OC)nc3s1)c1ccc(S(=O)(=O)N(CCO)Cc3ccccc3)cc12 [Example 345, (S)-methyl 5-(N-benzyl-N-(2-hydroxyethyl)sulfamoyl)-1-((5-methoxythiazolo[5,4-b]pyridin-2-yl)carbamoyl)spiro[indoline-3,3′-pyrrolidine]-1′-carboxylate]	785%
COC(=O)N1CCC2(C1)CN(C(=O)Nc1ncc(SCCCC(=O)N3CC(O)C3)s1)c1ccc(Cl)cc12 (centres unmarked) [Example 170, methyl 5-chloro-1-((5-((4-(3-hydroxyazetidin-1-yl)-4-oxobutyl)thio)thiazol-2-yl)carbamoyl)spiro[indoline-3,3′-pyrrolidine]-1′-carboxylate]	506%
CNC(=O)N1CCC2(C1)CN(C(=O)Nc1ncc(OC)s1)c1ccc(C(F)(F)F)cc12 (centres unmarked) [Example 439, N1-(5-Methoxythiazol-2-yl)-N1′-methyl-5-(trifluoromethyl)spiro[indoline-3,3′-pyrrolidine]-1,1′-dicarboxamide]	520%
